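In this assay, cells in 96-well plates receive the compound at five concentrations for 48 hours. Endpoints are linearly interpolated between the surrounding concentrations. Abbreviation: GI50, concentration required for 50% inhibition of growth.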 Calls of active or inactive are those of the source. No stated cut-off is given here; in the data, active = GI50 up to about 1.1 µM and inactive = higher.
Columns and labels:
Assay in all cases: growth of human tumour cells (NCI), 48 h
OVCAR-5 = test system: OVCAR-5
Hs-578T = test system: Hs-578T
ACHN = test system: ACHN
NCI-H23 = test system: NCI-H23
BT-549 = test system: BT-549
M14 = test system: M14
NCI-H522 = test system: NCI-H522
SK-MEL-2 = test system: SK-MEL-2
PC-3 = test system: PC-3
MDA-MB-231 = test system: MDA-MB-231
OVCAR-8 = test system: OVCAR-8
HL-60 = test system: HL-60
786-0 = test system: 786-0
HT-29 = test system: HT-29
NCI-H226 = test system: NCI-H226
LOX IMVI = test system: LOX IMVI
HCC 2998 = test system: HCC 2998
UO-31 = test system: UO-31
A498 = test system: A498
MDA-N = test system: MDA-N
IGROV-1 = test system: IGROV-1
MDA-MB-435 = test system: MDA-MB-435
CAKI-1 = test system: CAKI-1
A549 = test system: A549
SF-268 = test system: SF-268
KM12 = test system: KM12
SK-MEL-28 = test system: SK-MEL-28
U-251 = test system: U-251
SF-539 = test system: SF-539
K562 = test system: K562
SF-295 = test system: SF-295
TK-10 = test system: TK-10
NCI/ADR-RES = test system: NCI/ADR-RES
COLO 205 = test system: COLO 205
SN12C = test system: SN12C
UACC-257 = test system: UACC-257
RXF 393 = test system: RXF 393
OVCAR-4 = test system: OVCAR-4
HOP-92 = test system: HOP-92
MCF7 = test system: MCF7
SK-MEL-5 = test system: SK-MEL-5
RPMI-8226 = test system: RPMI-8226
HOP-62 = test system: HOP-62
HCT-116 = test system: HCT-116
MOLT-4 = test system: MOLT-4
HCT-15 = test system: HCT-15
T47D = test system: T47D
Malme-3M = test system: Malme-3M
DU-145 = test system: DU-145
EKVX = test system: EKVX
SW-620 = test system: SW-620
CCRF-CEM = test system: CCRF-CEM
UACC-62 = test system: UACC-62
OVCAR-3 = test system: OVCAR-3
SNB-19 = test system: SNB-19
SR = test system: SR
NCI-H460 = test system: NCI-H460
SK-OV-3 = test system: SK-OV-3
SNB-75 = test system: SNB-75

COC(=O)[C@@H](Nc1ccccc1)[C@@]1(C(=O)OC)SC12c1ccccc1-c1ccccc12
GI50 (OVCAR-5): > 100 µM (inactive)
GI50 (Hs-578T): > 100 µM (inactive)
GI50 (ACHN): > 100 µM (inactive)
GI50 (NCI-H23): > 100 µM (inactive)
GI50 (BT-549): 75.5 µM (inactive)
GI50 (M14): > 100 µM (inactive)
GI50 (NCI-H522): 22 µM (inactive)
GI50 (SK-MEL-2): 74.6 µM (inactive)
GI50 (PC-3): 35 µM (inactive)
GI50 (MDA-MB-231): > 100 µM (inactive)
GI50 (OVCAR-8): 63 µM (inactive)
GI50 (HL-60): > 100 µM (inactive)
GI50 (786-0): 29.4 µM (inactive)
GI50 (HT-29): 34.3 µM (inactive)
GI50 (NCI-H226): > 100 µM (inactive)
GI50 (LOX IMVI): 32.7 µM (inactive)
GI50 (HCC 2998): > 100 µM (inactive)
GI50 (UO-31): 42.3 µM (inactive)
GI50 (A498): > 100 µM (inactive)
GI50 (MDA-N): 61.1 µM (inactive)
GI50 (IGROV-1): > 100 µM (inactive)
GI50 (MDA-MB-435): 54.8 µM (inactive)
GI50 (CAKI-1): > 100 µM (inactive)
GI50 (A549): 44.8 µM (inactive)
GI50 (SF-268): > 100 µM (inactive)
GI50 (KM12): > 100 µM (inactive)
GI50 (SK-MEL-28): > 100 µM (inactive)
GI50 (U-251): 44.1 µM (inactive)
GI50 (SF-539): 45.8 µM (inactive)
GI50 (K562): 56.4 µM (inactive)
GI50 (SF-295): > 100 µM (inactive)
GI50 (TK-10): > 100 µM (inactive)
GI50 (NCI/ADR-RES): > 100 µM (inactive)
GI50 (COLO 205): > 100 µM (inactive)
GI50 (SN12C): 44.6 µM (inactive)
GI50 (UACC-257): 84.3 µM (inactive)
GI50 (RXF 393): 71.3 µM (inactive)
GI50 (OVCAR-4): 69.2 µM (inactive)
GI50 (HOP-92): 9.29 µM (inactive)
GI50 (MCF7): 34.2 µM (inactive)
GI50 (SK-MEL-5): 41.4 µM (inactive)
GI50 (RPMI-8226): 25.8 µM (inactive)
GI50 (HOP-62): > 100 µM (inactive)
GI50 (HCT-116): 12.8 µM (inactive)
GI50 (MOLT-4): 24.4 µM (inactive)
GI50 (HCT-15): 23.9 µM
GI50 (T47D): 25.5 µM (inactive)
GI50 (Malme-3M): 49.7 µM (inactive)
GI50 (DU-145): > 100 µM (inactive)
GI50 (EKVX): 61.8 µM (inactive)
GI50 (SW-620): 38.3 µM (inactive)
GI50 (CCRF-CEM): 39.4 µM (inactive)
GI50 (UACC-62): 45.2 µM (inactive)
GI50 (OVCAR-3): 43.2 µM (inactive)
GI50 (SNB-19): > 100 µM (inactive)

C1=CN2C[n+]3ccc4ccccc4c3N=C2c2ccccc21
GI50 (OVCAR-5): 16.1 µM (inactive)
GI50 (Hs-578T): 3.92 µM (inactive)
GI50 (ACHN): 23.3 µM (inactive)
GI50 (NCI-H23): 2.76 µM (inactive)
GI50 (BT-549): 7.98 µM (inactive)
GI50 (M14): 2.72 µM (inactive)
GI50 (NCI-H522): 0.622 µM (active)
GI50 (SK-MEL-2): 2.67 µM (inactive)
GI50 (PC-3): 8.2 µM (inactive)
GI50 (MDA-MB-231): 6.08 µM (inactive)
GI50 (OVCAR-8): 4.59 µM (inactive)
GI50 (HL-60): 2.52 µM (inactive)
GI50 (786-0): 2.88 µM (inactive)
GI50 (HT-29): 2.45 µM (inactive)
GI50 (UO-31): 21 µM (inactive)
GI50 (SR): 1.11 µM (active)
GI50 (MDA-N): 2.26 µM (inactive)
GI50 (NCI-H460): 3.54 µM (inactive)
GI50 (IGROV-1): 3.74 µM (inactive)
GI50 (MDA-MB-435): 2.19 µM (inactive)
GI50 (CAKI-1): 15 µM (inactive)
GI50 (A549): 1.75 µM (inactive)
GI50 (SF-268): 2.54 µM (inactive)
GI50 (KM12): 1.85 µM (inactive)
GI50 (U-251): 0.356 µM (active)
GI50 (SF-539): 3.25 µM (inactive)
GI50 (K562): 1.24 µM (inactive)
GI50 (SF-295): 2.69 µM (inactive)
GI50 (TK-10): 15.3 µM (inactive)
GI50 (NCI/ADR-RES): 48.6 µM (inactive)
GI50 (COLO 205): 1.23 µM (inactive)
GI50 (SN12C): 2.47 µM (inactive)
GI50 (UACC-257): 2.92 µM (inactive)
GI50 (SK-OV-3): 12.2 µM (inactive)
GI50 (HOP-92): 2.04 µM (inactive)
GI50 (MCF7): 0.929 µM (active)
GI50 (SK-MEL-5): 0.308 µM (active)
GI50 (RPMI-8226): 2.32 µM (inactive)
GI50 (HOP-62): 7.57 µM (inactive)
GI50 (HCT-116): 2.82 µM (inactive)
GI50 (MOLT-4): 1.91 µM (inactive)
GI50 (HCT-15): 66.4 µM
GI50 (T47D): 0.671 µM (active)
GI50 (Malme-3M): 0.632 µM (active)
GI50 (DU-145): 6.62 µM (inactive)
GI50 (EKVX): 7.62 µM (inactive)
GI50 (SW-620): 4.02 µM (inactive)
GI50 (CCRF-CEM): 3.3 µM (inactive)
GI50 (UACC-62): 1.93 µM (inactive)
GI50 (OVCAR-3): 0.652 µM (active)
GI50 (SNB-19): 2.11 µM (inactive)

COc1ccc(-n2c(=O)n(C)c(=O)n2-c2c(C)c(C)c(C)c(C)c2C)cc1
GI50 (OVCAR-5): > 100 µM (inactive)
GI50 (Hs-578T): > 100 µM (inactive)
GI50 (ACHN): > 100 µM (inactive)
GI50 (NCI-H23): > 100 µM (inactive)
GI50 (BT-549): > 100 µM (inactive)
GI50 (M14): > 100 µM (inactive)
GI50 (NCI-H522): > 100 µM (inactive)
GI50 (SK-MEL-2): > 100 µM (inactive)
GI50 (PC-3): > 100 µM (inactive)
GI50 (MDA-MB-231): > 100 µM (inactive)
GI50 (OVCAR-8): > 100 µM (inactive)
GI50 (786-0): > 100 µM (inactive)
GI50 (HT-29): > 100 µM (inactive)
GI50 (NCI-H226): > 100 µM (inactive)
GI50 (LOX IMVI): > 100 µM (inactive)
GI50 (HCC 2998): > 100 µM (inactive)
GI50 (UO-31): > 100 µM (inactive)
GI50 (A498): > 100 µM (inactive)
GI50 (MDA-N): > 100 µM (inactive)
GI50 (NCI-H460): > 100 µM (inactive)
GI50 (IGROV-1): > 100 µM (inactive)
GI50 (MDA-MB-435): > 100 µM (inactive)
GI50 (CAKI-1): > 100 µM (inactive)
GI50 (A549): > 100 µM (inactive)
GI50 (SF-268): > 100 µM (inactive)
GI50 (KM12): > 100 µM (inactive)
GI50 (SK-MEL-28): > 100 µM (inactive)
GI50 (U-251): > 100 µM (inactive)
GI50 (SF-539): > 100 µM (inactive)
GI50 (K562): > 100 µM (inactive)
GI50 (SNB-75): > 100 µM (inactive)
GI50 (SF-295): > 100 µM (inactive)
GI50 (TK-10): > 100 µM (inactive)
GI50 (NCI/ADR-RES): > 100 µM (inactive)
GI50 (COLO 205): > 100 µM (inactive)
GI50 (SN12C): > 100 µM (inactive)
GI50 (UACC-257): > 100 µM (inactive)
GI50 (RXF 393): > 100 µM (inactive)
GI50 (OVCAR-4): > 100 µM (inactive)
GI50 (SK-OV-3): > 100 µM (inactive)
GI50 (HOP-92): > 100 µM (inactive)
GI50 (MCF7): > 100 µM (inactive)
GI50 (SK-MEL-5): > 100 µM (inactive)
GI50 (RPMI-8226): > 100 µM (inactive)
GI50 (HOP-62): > 100 µM (inactive)
GI50 (HCT-116): > 100 µM (inactive)
GI50 (MOLT-4): > 100 µM (inactive)
GI50 (HCT-15): > 100 µM
GI50 (T47D): > 100 µM (inactive)
GI50 (Malme-3M): > 100 µM (inactive)
GI50 (DU-145): > 100 µM (inactive)
GI50 (EKVX): > 100 µM (inactive)
GI50 (SW-620): > 100 µM (inactive)
GI50 (CCRF-CEM): 0.148 µM (active)
GI50 (UACC-62): > 100 µM (inactive)
GI50 (OVCAR-3): > 100 µM (inactive)
GI50 (SNB-19): > 100 µM (inactive)
